Tests used:
[1] = tested on: secretion of gastric acid; experiment: Inhibitory effect on the secretion of gastric acid in rats (Example 7); format: in vivo, rats (Wister line); conditions: peptide 10 μg/kg with gastrin 4 μg/kg, hypodermic injection, gastric juice pH 10 minutes later, control pH 3.2 / 3.1
Procedure: The inhibitory effect on the secretion of gastric acid was evaluated using rats (Wister line), by dissolving in physiological saline, the peptides synthesized in Example 6 and gastrin, a stimulator of gastric acid secretion, hypodermically injecting the previous solution, and measuring the secretion of gastric acid 10 minutes later. Gastrin was administered to obtain a dose of 4 μg/kg and the peptides of the invention were administered to obtain a dose of 10 μg/kg. The rats were immobilized on a fixator, their gastric juice was sampled by inserting a probe through the mouth into the stomach, and the pH was measured to evaluate the secretion of gastric acid. When the secretion of gastric acid was compared between the reference group with no substance administered and the administered group, the following was obtained for the inhibition on the secretion of gastric acid.

BxPC-3 cells [2] = experiment: Stimulating effect on insulin secretion, BxPC-3 cells (Example 3); format: cell-based, human; conditions: supernatant of BxPC-3 cells, 0.01 mg/well, 24 hours; control 37.6
Procedure: BxPC-3 cells which are insulin producing cells derived from a human pancreas (source: Dainippon Pharmaceutical Co.,Ltd. ), were cultured in RPMI 1640 media containing 10% calf fetal serum, and grown with 5% carbon dioxide gas in a humidified incubator at 37° C. The cells were treated with trypsin prior to seeding with a density of 1×10^5/well; when they reached confluency, the peptide of the invention synthesized in Example 2, the peptides A and B, which are unrelated to the invention and whose activities are unknown, as well as a control (physiological saline) were added at 0.01 mg/well, and the cells were cultured for 24 hours. Then, the concentrations of insulin present in the supernatents were measured by colorimetry with an insulin assaying kit (source: Shibayagi Co.,Ltd.).

HIT cells = experiment: Stimulation of insulin production by insulin producing cells, HIT cells (Example 5); format: cell-based, hamster; conditions: for rate of stimulation for the production of insulin (%): HIT cells, 12 hours, no substance added = 100%
Procedure: (§1) HIT cells, which are insulin producing hamster pancreatic cells, and BxPC-3 cells, which are human pancreatic cells (source: Dai Nippon Seiyaku), were cultured in RPMI 1640 media (source: Dai Nippon Seiyaku) containing 10% calf fetal serum, and grown with 5% carbon dioxide gas in a humidified incubator at 37° C. The cells were treated with trypsin for seeding 96-well culture plates with a density of 1×10^4/well; when the cells reached confluency, the media was exchanged to a F12 serum-free media and the cells were cultured for 8 hours. Then, the peptides of the invention produced in Example 4 were dissolved in serum-free RPMI 1640 media; various doses of the peptides indicated by the sequence number 1 for the HIT cells, and various doses of the peptides indicated by the sequence number 5 for the BxPC-3 cells, were added to the wells and the cultures were further maintained for 12 hours. After the cultures have been performed, the stimulatory effects of the peptides of the invention on the production of insulin by the cells were measured by the insulin immunoassay, to seek stimulatory effects on production in comparison to the non-treated groups. Also, the insulin immunoassay, and the calculations for the rates of stimulation for the production of insulin were actually performed as follows. Various dilutions of the supernatents from the cell culture media were added to the wells coated with immobilized anti-insulin antibodies, and reacted with anti-insulin antibody solutions, according to the protocol of the insulin assay kit commercialized by Shibayagi (Ltd.). The detection was by reacting the biotin labeling the antibodies with the steptavidin-conjugated peroxydase and measuring the coloration catalyzed by the peroxydase. The concentration of insulin was calculated from a standard curve for insulin. When examining the rates of stimulation for the production of insulin in the groups with various doses added, by taking the rate of stimulation for the production of insulin in the reference group with no substance added as 100%, the following was obtained.

BxPC-3 cells [3] = experiment: Stimulation of insulin production by insulin producing cells, BxPC-3 cells (Example 5); format: cell-based, human; conditions: 12 hours, no substance added = 100%
Procedure: as §1

GH3 cells = experiment: Stimulation of growth hormone production by growth hormone producing cells (Example 9); format: cell-based, Hamster; conditions: 3 days, no peptides added = 100%
Procedure: Hamster-derived GH3 cells (source: IFO, deposition No. 50105), which are growth hormone-producing hypophyseal cells, were grown in an F12 media (source: Dai Nippon Seiyaku) containing 15% calf fetal serum, and grown with 5% carbon dioxide gas in a humidified incubator at 37° C. The cells were treated with trypsin for seeding 96-well culture plates with a density of 1×10^4/well; when the cells reached confluency, the media was exchanged to a 15% serum F12 media and the cells were cultured for 12 hours. Then, the peptides of the invention produced in Example 7 were dissolved in 15% serum F12 media to add various doses of the peptides to the wells, and the cultures were further maintained for 3 days. After the cultures have been performed, the stimulatory effects of the peptides on the production of growth hormones by the cells were measured by the growth hormone immunoassay, to examine stimulatory the effects on the production, in comparison with the non-treated groups. Also, the growth hormone immunoassay was performed with a method of the art, the sandwich ELISA, i.e., various dilutions of the supernatents from the cell culture media were added to wells coated with immobilized anti-growth hormone antibodies, and reacted for 180 minutes at room temperature, washed before further addition of anti-growth hormone antibodies labeled with peroxydase, and reacted for 60 minutes at room temperature. After washing, the coloring reaction catalyzed by the peroxydase was measured by measuring the absorbance. The concentration of growth hormone was examined based on standard curves obtained by performing the same sandwich ELISA using already known concentrations of growth hormone. When examining the rates of stimulation for the production of growth hormones in the groups with various doses added, by taking the rate of stimulation for the production of growth hormone for the reference group with no peptides added as 100%, the following was obtained.

Sequence No. 3: peptide predicted by comparing the cDNA sequences of the gastrin receptor; gastric acid secretion regulator (GGAGP; Artificial polypeptide which regulates insulin production.)
Gastric juice pH [1]: 5.3 pH

Sequence No. 4: peptide predicted by comparing the cDNA sequences of the gastrin receptor; gastric acid secretion regulator (MSVGGNMLIIV; Artificial polypeptide having inhibitory effect on gastric acid secretion)
Gastric juice pH [1]: 4.8 pH

peptide of the invention: peptide synthesized in Example 2, printed as having the amino acid sequence of sequence number 2 (GIP receptor derived insulin production regulator) (VGRDPAAAPALWRRRGTAPPLSAIVSQV; Artificial peptide which regulates insulin production)
insulin concentration (BxPC-3 cells [2]): 148 µg/mL

sequence number 1: peptide of the missing (spliced) region predicted from glucagon receptor cDNAs; increases insulin production (PKAPSAQ; Artificial polypeptide which inhibits insulin production.)
rate of stimulation for the production of insulin (%) (HIT cells; 0.01 μg/well): 102.8% | rate of stimulation for the production of insulin (%) (HIT cells; 0.1 μg/well): 131.6% | rate of stimulation for the production of insulin (%) (HIT cells; 1 μg/well): 184.9% | rate of stimulation for the production of insulin (%) (HIT cells; 10 μg/well): 203.1% | production of insulin by insulin producing cells (HIT cells; summary in the description, cells and dose not named): increased significantly

sequence number 5: peptide predicted from glucagon receptor cDNAs, variant of sequence number 1; increases insulin production (PQVPSAQ; Artificial polypeptide having inhibitory effects on insulin secretion)
rate of stimulation for the production of insulin (%) (BxPC-3 cells [3]; 0.01 μg/well): 110.9% | rate of stimulation for the production of insulin (%) (BxPC-3 cells [3]; 0.1 μg/well): 123.3% | rate of stimulation for the production of insulin (%) (BxPC-3 cells [3]; 1 μg/well): 198.2% | rate of stimulation for the production of insulin (%) (BxPC-3 cells [3]; 10 μg/well): 181.1%

sequence number 6: peptide predicted by comparing the amino acid sequences of somatostatin receptor; growth hormone production regulator (PSCQWVQAPACQ; Artificial polypeptide which promotes growth hormone secretion.)
stimulation rate of growth hormone production (%) (GH3 cells; 0.01 μg/well): 101.2% | stimulation rate of growth hormone production (%) (GH3 cells; 0.1 μg/well): 124.1% | stimulation rate of growth hormone production (%) (GH3 cells; 1 μg/well): 175.6% | stimulation rate of growth hormone production (%) (GH3 cells; 10 μg/well): 190.4%
